These are literature values, as cited in patent EP0225409A1, “Organic amine phosphonic acid complexes for the treatment of calcific tumors” (THE DOW CHEMICAL COMPANY, priority 1985, dated 1987).

For this series the following is noted: 24 hours after injection.

For the compound `NC(c1ccc(O)c([131I])c1)(P(=O)(O)O)P(=O)(O)O` [α-amino-(3-iodo-4-hydroxybenzylidene)diphosphonate], the “injected dose present in the thyroid” value is reported as 0.1%.
